In the supplement of paper PMC10331698:
± gives the standard deviation of the averaged measurements.

Key:
Experiment in all cases: level (log10 ratio to DMSO vehicle control); higher = higher biomarker level / cell amount than vehicle control
Conditions in all cases: in DMSO
[1] = compound: C=CC(=O)OCCC(F)(F)C(F)(F)C(F)(F)C(F)(F)F [2-(Perfluorobutyl)ethyl acrylate]
Protocol: (§1)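 BioMAP Diversity Plus panel of 12 human primary cell co-culture systems (3C, 4H, LPS, SAg, BT, BF4T, BE3C, CASM3C, HDF3CGF, KF3CT, MyoF, Mphg). Compounds were added 1 h before stimulation and left for 24 h (MyoF 48 h; BT 72 h for soluble read-outs or 6 d for IgG). Biomarkers were read by ELISA, cytotoxicity by SRB, PBMC viability and proliferation by Alamar Blue. Each well value was divided by the mean of 8 DMSO control wells on the same plate and log10 transformed; duplicate blinded samples were tested at 4 concentrations.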

[2] = compound: O=C(O)C(F)(F)C(F)(F)C(F)(F)C(F)(F)C(F)(F)C(F)(F)C(F)(F)C(F)(F)C(F)(F)C(F)(F)C(F)(F)C(F)(F)C(F)(F)F [Perfluorotetradecanoic acid]
Protocol: as §1

[3] = compound: O=C(O)C(F)(F)C(F)(F)C(F)(F)C(F)(F)C(F)(F)C(F)(F)C(F)(F)C(F)(F)C(F)(F)C(F)(F)C(F)(F)C(F)(F)F [Perfluorotridecanoic acid]
Protocol: as §1

[4] = compound: O=C(O)C(F)(F)C(F)(F)C(F)(F)C(F)(F)C(F)(F)C(F)(F)C(F)(F)C(F)(F)Cl [9-Chloro-perfluorononanoic acid]
Protocol: as §1

Perfluorohexanoic acid = compound: O=C(O)C(F)(F)C(F)(F)C(F)(F)C(F)(F)C(F)(F)F [Perfluorohexanoic acid]
Protocol: as §1

[5] = compound: OCC(F)(F)C(F)(F)C(F)(F)C(F)(F)C(F)(F)C(F)F [1H,1H,7H-Dodecafluoro-1-heptanol]
Protocol: as §1

1H,1H-Heptafluorobutanol = compound: OCC(F)(F)C(F)(F)C(F)(F)F [1H,1H-Heptafluorobutanol]
Protocol: as §1

Test System | level (log10) ([1]; 6700 nM) | level (log10) ([1]; 20000 nM) | level (log10) ([1]; 60000 nM) | level (log10) ([2]; 6700 nM) | level (log10) ([2]; 20000 nM) | level (log10) ([3]; 1500 nM) | level (log10) ([3]; 4400 nM) | level (log10) ([3]; 13000 nM) | level (log10) ([3]; 40000 nM) | level (log10) ([4]; 6700 nM) | level (log10) ([4]; 20000 nM) | level (log10) (Perfluorohexanoic acid; 6700 nM) | level (log10) (Perfluorohexanoic acid; 20000 nM) | level (log10) (Perfluorohexanoic acid; 60000 nM) | level (log10) ([5]; 6700 nM) | level (log10) ([5]; 20000 nM) | level (log10) ([5]; 60000 nM) | level (log10) (1H,1H-Heptafluorobutanol; 6700 nM) | level (log10) (1H,1H-Heptafluorobutanol; 20000 nM) | level (log10) (1H,1H-Heptafluorobutanol; 60000 nM)
BE3C:uPA | 0.0075 ± 0.032 | -0.0035 ± 0.022 | -0.0175 ± 0.015 | -0.0075 ± 0.05 | -0.0085 ± 0.056 | -0.0005 ± 0.00071 | 0.008 ± 0.0099 | -0.01 ± 0.02 | -0.0085 ± 0.046 | 0.0035 ± 0.011 | -0.0125 ± 0.011 | -0.03 ± 0.013 | -0.01 ± 0.018 | 0.0025 ± 0.016 | -0.0055 ± 0.032 | -0.004 ± 0.027 | -0.0055 ± 0.0035 | -0.0035 ± 0.005 | 0.015 ± 0.011 | 0.002 ± 0.0028
CASM3C:CCL2/MCP-1 | -0.001 ± 0.0099 | -0.0085 ± 0.0064 | -0.0035 ± 0.0064 | -0.0615 ± 0.036 | -0.03 ± 0.021 | -0.0135 ± 0.0021 | -0.043 ± 0.033 | -0.04 ± 0.033 | 0.0315 ± 0.033 | -0.0085 ± 0.011 | -0.011 ± 0.0028 | -0.014 ± 0.0042 | 0.0025 ± 0.021 | 0.008 ± 0.027 | -0.0065 ± 0.013 | -0.017 ± 0.02 | -0.008 ± 0.033 | 0.006 ± 0.0099 | 0.006 ± 0.0057 | 0.0095 ± 0.026
CASM3C:CD87/uPAR | -0.006 ± 0.024 | -0.027 ± 0.018 | -0.023 ± 0.0042 | -0.0305 ± 0.057 | -0.0375 ± 0.026 | 0.0185 ± 0.011 | 0.028 ± 0.0014 | -0.01 ± 0.013 | 0.0015 ± 0.019 | -0.002 | 0.02 ± 0.0071 | -0.003 ± 0.027 | 0.0085 ± 0.022 | -0.012 ± 0.0014 | -0.001 ± 0.016 | 0.0035 ± 0.021 | -0.0055 ± 0.023 | -0.0045 ± 0.026 | -0.013 ± 0.016 | 0.015 ± 0.011
CASM3C:CD106/VCAM-1 | -0.0175 ± 0.023 | -0.0475 ± 0.0078 | -0.138 ± 0.016 | -0.023 ± 0.041 | -0.0065 ± 0.073 | -0.017 ± 0.05 | -0.0515 ± 0.015 | -0.167 ± 0.083 | -0.22 ± 0.054 | -0.029 ± 0.0014 | -0.027 ± 0.016 | -0.013 ± 0.011 | -0.002 ± 0.014 | -0.029 ± 0.018 | -0.0025 ± 0.022 | -0.017 ± 0.0057 | -0.017 ± 0.024 | 0.0035 ± 0.033 | 0.0065 ± 0.012 | -0.0015 ± 0.0092
CASM3C:CD141/Thrombomodulin | 0.006 ± 0.018 | -0.0125 ± 0.0064 | 0.052 ± 0.0014 | 0.0555 ± 0.064 | 0.056 ± 0.044 | 0.0215 ± 0.11 | -0.0185 ± 0.084 | 0.03 ± 0.062 | 0.193 ± 0.015 | -0.0175 ± 0.022 | -0.0225 ± 0.025 | 0.021 ± 0.021 | -0.0105 ± 0.021 | 0.0005 ± 0.044 | 0.0095 ± 0.052 | 0.0055 ± 0.0064 | -0.0055 ± 0.047 | -0.01 ± 0.013 | -0.0065 ± 0.0021 | -0.0145 ± 0.005
CASM3C:CD142/Tissue Factor | -0.027 ± 0.011 | -0.0455 ± 0.0092 | -0.0585 ± 0.0092 | -0.005 ± 0.038 | -0.002 ± 0.041 | -0.004 ± 0.064 | 0.002 ± 0.024 | -0.0025 ± 0.018 | -0.012 ± 0.034 | -0.017 ± 0.011 | 0.0055 ± 0.0064 | -0.0125 ± 0.013 | -0.019 ± 0.0042 | -0.0145 ± 0.005 | 0.0235 ± 0.043 | 0.0015 ± 0.0064 | -0.0185 ± 0.0035 | 0.0005 ± 0.0078 | -0.0225 ± 0.013 | -0.015 ± 0.0057
CASM3C:CXCL8/IL-8 | -0.0045 ± 0.0064 | -0.009 ± 0.0014 | -0.028 ± 0.014 | 0.012 ± 0.016 | 0.016 ± 0.028 | 0.002 ± 0.037 | -0.003 ± 0.025 | -0.014 ± 0.037 | -0.0155 ± 0.0021 | 0.0045 ± 0.00071 | 0.0175 ± 0.016 | 0.0005 ± 0.021 | 0.007 ± 0.0099 | 0.0265 ± 0.028 | 0.0055 ± 0.012 | 0.005 ± 0.013 | 0.0055 ± 0.00071 | 0.007 ± 0.0099 | 0.0045 ± 0.021 | 0.014 ± 0.04
CASM3C:CXCL9/MIG | -0.0005 ± 0.012 | -0.025 ± 0.0071 | -0.121 ± 0.014 | -0.0375 ± 0.042 | 0.0295 ± 0.057 | 0.013 ± 0.044 | -0.006 ± 0.017 | -0.054 ± 0.018 | -0.0405 ± 0.054 | -0.0355 ± 0.0035 | -0.0235 ± 0.013 | 0.008 ± 0.0057 | 0.001 ± 0.0042 | 0.012 ± 0.021 | 0.002 ± 0.0071 | 0.007 ± 0.0014 | 0.0195 ± 0.005 | 0.003 ± 0.0014 | -0.006 ± 0.013 | 0.015 ± 0.044
CASM3C:HLA-DR | -0.0245 ± 0.025 | -0.017 ± 0.014 | -0.0205 ± 0.011 | -0.0195 ± 0.0078 | -0.022 ± 0.073 | 0.0015 ± 0.0092 | -0.0285 ± 0.035 | -0.0385 ± 0.013 | -0.085 ± 0.062 | 0.0085 ± 0.0035 | 0.0015 ± 0.012 | 0.004 ± 0.0099 | -0.004 ± 0.0057 | -0.004 ± 0.011 | -0.0045 ± 0.03 | 0.0075 ± 0.0064 | 0.0045 ± 0.0021 | 0.015 ± 0.0057 | -0.004 ± 0.0028 | 0.011 ± 0.0028
CASM3C:IL-6 | -0.023 ± 0.0014 | -0.0425 ± 0.0021 | -0.076 ± 0.034 | 0.002 ± 0.051 | 0.0135 ± 0.094 | 0.005 ± 0.062 | -0.047 ± 0.0028 | -0.059 ± 0.028 | -0.0815 ± 0.08 | -0.0115 ± 0.00071 | -0.0325 ± 0.019 | -0.0075 ± 0.042 | -0.0155 ± 0.0021 | -0.0125 ± 0.053 | -0.0165 ± 0.035 | -0.024 ± 0.021 | 0.008 ± 0.028 | 0 ± 0.033 | -0.0125 ± 0.011 | 0.018 ± 0.042
CASM3C:LDLR | -0.013 ± 0.0099 | -0.0105 ± 0.0021 | 0.01 ± 0.042 | -0.0135 ± 0.013 | -0.028 ± 0.014 | -0.001 ± 0.013 | 0.013 ± 0.02 | 0.0105 ± 0.025 | -0.021 ± 0.0028 | -0.011 ± 0.013 | -0.0065 ± 0.0021 | 0.001 ± 0.0028 | -0.0065 ± 0.029 | -0.0025 ± 0.039 | 0.0045 ± 0.05 | -0.0135 ± 0.028 | 0.014 ± 0.024 | -0.0025 ± 0.0035 | 0.012 ± 0.011 | 0.006 ± 0.03
CASM3C:M-CSF | -0.0165 ± 0.019 | -0.0355 ± 0.022 | -0.021 ± 0.044 | 0.006 ± 0.025 | -0.0065 ± 0.043 | 0.0075 ± 0.054 | 0.0255 ± 0.005 | 0.0565 ± 0.039 | 0.095 ± 0.0085 | -0.0235 ± 0.0035 | -0.0315 ± 0.011 | -0.0185 ± 0.019 | -0.0125 ± 0.013 | 0.0105 ± 0.0092 | -0.0045 ± 0.0035 | -0.0185 ± 0.0035 | 0.0145 ± 0.039 | 0.006 ± 0.021 | 0.03 ± 0.041 | 0.038 ± 0.016
CASM3C:PAI-I | 0.0105 ± 0.021 | -0.0035 ± 0.011 | 0 ± 0.013 | 0.007 ± 0.0028 | 0.013 ± 0.0014 | 0.005 ± 0.0085 | 0 ± 0.011 | 0.0135 ± 0.013 | 0.01 ± 0.0057 | -0.002 ± 0.0071 | 0.0065 ± 0.0078 | 0.0005 ± 0.005 | -0.003 ± 0.0042 | 0.0095 ± 0.005 | 0.004 ± 0.0057 | -0.0005 ± 0.0064 | 0.0045 ± 0.011 | 0.0015 ± 0.0092 | -0.0045 ± 0.00071 | 0.009 ± 0.0042
